Laboratory results reported in ChEMBL document CHEMBL5257049, “Interconvertible Pyridone Alkaloids from the Marine-Derived Fungus Penicillium oxalicum QDU1” (J Nat Prod, 2023).
pIC50: −log10 of the molar value.

Tested on: RAW264.7
Experiment: Antiinflammatory activity in mouse RAW264.7 cells assessed as inhibition of LPS-stimulated NO production preincubated for 3 hrs followed by LPS stimulation and measured after 24 hrs by Griess reagent based assay
Format: functional, cell-based

| Compound | pIC50 |
| --- | --- |
| CC(/C=C/C=C(C)/C(O)=C1/C(=O)N[C@H]([C@@H](O)c2ccc(O)cc2)C1=O)=C\[C@H](C)[C@@H](C)O | < 4.70 |
| CC[C@H](C)/C=C(C)/C=C/[C@H]1Oc2c(-c3ccc(O)cc3)c[nH]c(=O)c2[C@H](O)[C@H]1C | 4.77 |
| CC[C@H](C)/C=C(C)/C=C/[C@H]1Oc2c(-c3ccc(O)cc3)c[nH]c(=O)c2[C@H](OC)[C@H]1C | 5.04 |
| CC(/C=C/[C@@H]1Oc2c(-c3ccc(O)cc3)c[nH]c(=O)c2[C@@H](O)[C@H]1C)=C\[C@H](C)[C@H](C)O | < 4.70 |
| CO[C@@H]1c2c(c(-c3ccc(O)cc3)c[nH]c2=O)O[C@@H](/C=C/C(C)=C/[C@H](C)[C@@H](C)O)[C@@H]1C | 4.82 |
| CO[C@@H]1c2c(c(-c3ccc(O)cc3)c[nH]c2=O)O[C@H](/C=C/C(C)=C/[C@H](C)[C@@H](C)O)[C@@H]1C | 4.77 |
| CC(/C=C/[C@@H]1Oc2c(-c3ccc(O)cc3)c[nH]c(=O)c2[C@H](O)[C@H]1C)=C\[C@H](C)[C@@H](C)O | < 4.70 |
| CC(/C=C/C=C(C)/C(O)=C1/C(=O)N/C(=C\c2ccc(O)cc2)C1=O)=C\[C@H](C)[C@@H](C)O | 4.85 |
| CC[C@H](C)/C=C(C)/C=C/[C@H]1Oc2c(-c3ccc(O)cc3)c[nH]c(=O)c2[C@H](OC)[C@@H]1C | < 4.70 |

Second part, the compound after the results:

| pIC50 | Compound |
| --- | --- |
| 6.21 | COc1ccc2c(c1)c(CC(=O)O)c(C)n2C(=O)c1ccc(Cl)cc1 [INDOMETHACIN] |
| 4.72 | CC[C@H](C)/C=C(C)/C=C/[C@H]1Oc2c(-c3ccc(O)cc3)c[nH]c(=O)c2[C@@H](O)[C@@H]1C |
| < 4.70 | CC[C@H](C)/C=C(C)/C=C/[C@H]1Oc2c(-c3ccc(O)cc3)c[nH]c(=O)c2[C@H](O)[C@@H]1C |
| < 4.70 | CC(/C=C/C=C(C)/C(O)=C1/C(=O)N[C@@H]([C@@H](O)c2ccc(O)cc2)C1=O)=C\[C@H](C)[C@@H](C)O |
| < 4.70 | CC(/C=C/[C@@H]1Oc2c(-c3ccc(O)cc3)c[nH]c(=O)c2[C@@H](O)[C@H]1C)=C\[C@H](C)[C@@H](C)O |
| 4.74 | CO[C@@H]1c2c(c(-c3ccc(O)cc3)c[nH]c2=O)O[C@@H](/C=C/C(C)=C/[C@H](C)[C@H](C)O)[C@@H]1C |
